Data on eleven compounds can be found in ChEMBL document CHEMBL1201862, “PubChem BioAssay data set” (2004).

Among the test systems are NCI-H23; SW-620; SF-295; UACC-257; RXF 393; HCT-116; HT-29; HCT-15; SN12C; COLO 205; SR; HOP-92; UACC-62; SK-MEL-5; CCRF-CEM; SK-OV-3; KM12; HL-60; TK-10; CAKI-1.
Holding throughout (test): NCI anticancer screen, dose series, 48 h

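Cells were grown in 96-well plates and exposed to each compound for 48 hours at five concentrations; endpoints were interpolated linearly between bracketing concentrations, or set to the highest concentration if not reached. GI50 = concentration required for 50% inhibition of growth.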 Activity calls are given as the source filed them. Cut-off read from the data, not from the text of the source: active = GI50 up to about 1.1 µM and inactive = higher. A value given as a limit tells only on which side of the number the result lay.

With `COCCOCCOCCOc1ccc(C(C#N)N(CCc2ccccc2)C(=O)c2cc(C(=O)N(CCc3ccccc3)C(C#N)c3ccc(OCCOCCOCCOC)cc3)cc(C(=O)N(CCc3ccccc3)C(C#N)c3ccc(OCCOCCOCCOC)cc3)c2)cc1` (stereo not given), the GI50 in the assay with NCI-H23, in the assay on SW-620, with SF-295, in the assay with UACC-257, with RXF 393 and with HCT-116 was > 100 µM (inactive) each time. Besides, the GI50 in the assay with HT-29 was > 100 µM (inactive); in the assay with HCT-15, more than 100 µM; in the assay with SN12C, > 100 µM (inactive); in the assay on COLO 205, > 100 µM (inactive); in the assay with SR, > 100 µM (inactive); with HOP-92 it was 85.7 µM (inactive). Further, the GI50 with UACC-62, with SK-MEL-5, with CCRF-CEM, with SK-OV-3, in the assay on KM12 and in the assay with HL-60 was > 100 µM (inactive) throughout. The GI50 in the assay with TK-10 was > 100 µM (inactive).

`CCCCCCCC/C=C/CCCCCCCC(=O)N(O)C1CC(n2cc(C)c(=O)[nH]c2=O)OC1CO` (stereo not given): the GI50 in the assay on NCI-H23 is 10.6 µM (inactive); in the assay with SW-620, 11 µM (inactive); in the assay on SF-295, 8.28 µM (inactive); with UACC-257 it was 13.2 µM (inactive); in the assay with RXF 393 it was 3.77 µM (inactive); in the assay with HCT-116, 8.53 µM (inactive). Besides, the GI50 in the assay on HT-29 is 10.2 µM (inactive); with HCT-15, 4.67 µM; in the assay on CAKI-1, 8.99 µM (inactive); in the assay on SN12C, 10.6 µM (inactive); in the assay on COLO 205, 4.8 µM (inactive); in the assay on SR, 3.27 µM (inactive). Besides, the GI50 in the assay on HOP-92 is 13.8 µM (inactive); in the assay with UACC-62, 2.64 µM (inactive); in the assay with SK-MEL-5 it was 7.18 µM (inactive); in the assay on CCRF-CEM, 4.22 µM (inactive); in the assay with SK-OV-3, 10.3 µM (inactive); in the assay with KM12 it was 11.3 µM (inactive). In addition, the GI50 in the assay with TK-10 was 10.8 µM (inactive).

With `NC(=O)C(=O)c1ncn(Cc2ccccc2)c1N`, the GI50 in the assay with NCI-H23, in the assay with SW-620, in the assay on SF-295, with UACC-257, in the assay with RXF 393 and in the assay on HCT-116 was > 100 µM (inactive) throughout. Moreover, the GI50 in the assay with HT-29 was > 100 µM (inactive); in the assay on HCT-15 it was more than 100 µM; in the assay with CAKI-1, > 100 µM (inactive); in the assay with SN12C it was > 100 µM (inactive); with COLO 205, > 100 µM (inactive); with SR, > 100 µM (inactive). For the same compound, the GI50 with UACC-62, with SK-MEL-5, in the assay on CCRF-CEM, in the assay with SK-OV-3, in the assay on KM12 and with HL-60 was > 100 µM (inactive) throughout. Also, the GI50 in the assay with TK-10 is > 100 µM (inactive).

On to `CC(C)C1=CC23CCC4C(C)(C(=O)O)CCCC4(C)C2CC1C1C(=O)N(CCCCCCN2C(=O)C4C5CC6C7(C)CCCC(C)(C(=O)O)C7CCC6(C=C5C(C)C)C4C2=O)C(=O)C13` (stereo not given), for which the GI50 with NCI-H23 was 2.74 µM (inactive); in the assay with SW-620, 15.9 µM (inactive); in the assay on RXF 393 it was 14.2 µM (inactive); with HCT-116, 8.51 µM (inactive); in the assay on HT-29, 3.84 µM (inactive); with HCT-15, 14.8 µM. Further, the GI50 with SN12C was 14 µM (inactive); in the assay with COLO 205 it was > 10 µM (inactive); in the assay on SR, 7.43 µM (inactive); in the assay with HOP-92, 21.7 µM (inactive); in the assay with UACC-62 it was 37.8 µM (inactive); in the assay on SK-MEL-5, 14 µM (inactive). The GI50 is 7.29 µM (inactive) with CCRF-CEM, 11.4 µM (inactive) with KM12, 13.5 µM (inactive) in the assay on HL-60 and 16.2 µM (inactive) in the assay on TK-10.

Take `CCC1CN2CCC3(c4ccccc4)CC(C(=O)OC)=CC1C23` (stereo not given): the GI50 with NCI-H23 was 15.4 µM (inactive); with SW-620, 16.9 µM (inactive); in the assay on SF-295, 18.2 µM (inactive); with UACC-257, 16.4 µM (inactive); with RXF 393 it was 18.3 µM (inactive); in the assay with HCT-116 it was 15.9 µM (inactive). Also, the GI50 with HT-29 is 16.7 µM (inactive); in the assay on HCT-15, 17.6 µM; in the assay on CAKI-1, 18.5 µM (inactive); with SN12C it was 16.1 µM (inactive); in the assay with COLO 205 it was 16.9 µM (inactive); in the assay with SR, 41.3 µM (inactive). Moreover, the GI50 in the assay on HOP-92 is 11.7 µM (inactive); with UACC-62, 15.9 µM (inactive); in the assay with SK-MEL-5 it was 16.4 µM (inactive); with CCRF-CEM it was > 100 µM (inactive); in the assay on SK-OV-3, 13.3 µM (inactive); with KM12, 15 µM (inactive). Further, in the assay on TK-10, the GI50 is 25.4 µM (inactive).

Consider `CCCCCCCC(=O)OC[C@@H](C[As](=O)(O)O)OC(=O)CCCCCCC`, for which the GI50 was 12.9 µM (inactive) in the assay with NCI-H23; 12.9 µM (inactive) in the assay on SW-620; 15.1 µM (inactive) with SF-295; 16.4 µM (inactive) in the assay with UACC-257; 4.97 µM (inactive) in the assay with RXF 393; 10.6 µM (inactive) in the assay with HCT-116. The GI50 in the assay with HT-29 is 14.1 µM (inactive); with HCT-15, 10.1 µM; in the assay with SN12C, 11.2 µM (inactive); with COLO 205 it was 17.8 µM (inactive); in the assay with SR, 4.95 µM (inactive); in the assay with HOP-92 it was 17.2 µM (inactive). Further, the GI50 was 11.3 µM (inactive) with UACC-62; 13.9 µM (inactive) in the assay on SK-MEL-5; 1.88 µM (inactive) with CCRF-CEM; 14.6 µM (inactive) in the assay with SK-OV-3; 2.98 µM (inactive) in the assay on HL-60.

With `CCCCCC(=O)OCC1(CO)C/C(=C\CC(C(C)C)C(C)C)C(=O)O1` (stereo not given), the GI50 in the assay with NCI-H23 is > 100 µM (inactive); in the assay on SW-620, 24.4 µM (inactive); in the assay on SF-295, 25.9 µM (inactive); in the assay on UACC-257 it was > 100 µM (inactive); in the assay with RXF 393, > 100 µM (inactive); in the assay on HCT-116 it was 45.7 µM (inactive). Besides, the GI50 is 30.7 µM (inactive) in the assay on HT-29; 75.2 µM with HCT-15; 83.6 µM (inactive) in the assay with CAKI-1; 31.6 µM (inactive) in the assay on SN12C; 17.9 µM (inactive) with COLO 205; 27.2 µM (inactive) with SR. Moreover, the GI50 in the assay on HOP-92 is 93.3 µM (inactive); in the assay with UACC-62, > 100 µM (inactive); in the assay on SK-MEL-5 it was 38.4 µM (inactive); in the assay with CCRF-CEM, 26.4 µM (inactive); in the assay on SK-OV-3, > 100 µM (inactive); in the assay on KM12, 39.6 µM (inactive). The GI50 with TK-10 is > 100 µM (inactive).

For the compound `c1ccc2c(CSCc3cccc4ccccc34)cccc2c1`, the GI50 in the assay on NCI-H23 is > 100 µM (inactive); in the assay on SW-620, > 100 µM (inactive); with SF-295, > 100 µM (inactive); with UACC-257, 52.7 µM (inactive); in the assay on RXF 393, > 100 µM (inactive); in the assay with HCT-116, 57.5 µM (inactive). In addition, the GI50 with HT-29 is 40.2 µM (inactive); in the assay with HCT-15, 1.91 µM; in the assay with CAKI-1 it was > 100 µM (inactive); with SN12C, > 100 µM (inactive); in the assay on SR, 28.6 µM (inactive); with HOP-92, > 100 µM (inactive). The GI50 in the assay on UACC-62 is > 100 µM (inactive); in the assay on SK-MEL-5 it was 88.7 µM (inactive); with CCRF-CEM, 3.5 µM (inactive); in the assay with KM12, > 100 µM (inactive); in the assay with TK-10 it was > 100 µM (inactive).

In the case of `CC1(C)OCC(C2OC3OC(C)(C)OC3C2c2ccccc2)O1` (stereo not given), the GI50 in the assay with NCI-H23 is 22.2 µM (inactive); with SW-620, 32.8 µM (inactive); in the assay on SF-295, > 100 µM (inactive); with UACC-257 it was 36.1 µM (inactive); with RXF 393 it was 48.3 µM (inactive); in the assay on HCT-116, 36.4 µM (inactive). Besides, the GI50 with HT-29 was 39.6 µM (inactive); in the assay with HCT-15 it was 24.2 µM; in the assay with SN12C it was 26.7 µM (inactive); in the assay with COLO 205, 21.2 µM (inactive); in the assay with SR, 28.8 µM (inactive); in the assay on HOP-92 it was 17.6 µM (inactive). Also, the GI50 is 27 µM (inactive) in the assay on UACC-62; 17.1 µM (inactive) with SK-MEL-5; 30.5 µM (inactive) in the assay with CCRF-CEM; > 100 µM (inactive) in the assay on SK-OV-3; 82.4 µM (inactive) in the assay on KM12; 18.3 µM (inactive) in the assay with HL-60. Moreover, in the assay on TK-10, the GI50 is 32.1 µM (inactive).

Consider `CC1=CCC2(C#N)CCC1C2O` (stereo not given), for which the GI50 in the assay on SF-295 was > 100 µM (inactive); in the assay with UACC-257, > 100 µM (inactive); in the assay with RXF 393 it was > 100 µM (inactive); in the assay on HCT-116, > 100 µM (inactive); in the assay on HT-29 it was > 100 µM (inactive); with HCT-15, more than 100 µM. Moreover, the GI50 with CAKI-1, with SN12C, with COLO 205, in the assay with SR, in the assay with UACC-62 and in the assay with SK-MEL-5 was > 100 µM (inactive) throughout. Moreover, the GI50 in the assay with CCRF-CEM, in the assay on SK-OV-3, in the assay on KM12, in the assay on HL-60 and with TK-10 was > 100 µM (inactive) each time.

With `N#CC(Nc1cccc(C(F)(F)F)c1)c1ccccc1C(F)(F)F` (stereo not given), the GI50 with NCI-H23 is 13.9 µM (inactive); in the assay on SW-620 it was 3.08 µM (inactive); in the assay on SF-295 it was 10.5 µM (inactive); in the assay with UACC-257, 14.6 µM (inactive); in the assay with RXF 393 it was 12.2 µM (inactive); in the assay with HCT-116 it was 7.66 µM (inactive). For the same compound, the GI50 in the assay with HT-29 is 13.7 µM (inactive); in the assay with HCT-15, 7 µM; in the assay on CAKI-1, 2.73 µM (inactive); in the assay with SN12C, 7.4 µM (inactive); with COLO 205 it was 3.26 µM (inactive); with SR, 4.82 µM (inactive). Also, the GI50 with UACC-62 is 16.2 µM (inactive); in the assay with SK-MEL-5, 18 µM (inactive); in the assay with CCRF-CEM it was 18.4 µM (inactive); with SK-OV-3, 17.6 µM (inactive); in the assay with KM12, 7.52 µM (inactive); with HL-60, 4.9 µM (inactive). The GI50 in the assay on TK-10 was 14.7 µM (inactive).
